Experimental data taken from publication PMC10325066, “The FMRF-NH2 gated sodium channel of Biomphalaria glabrata: Localization and expression following infection by Schistosoma mansoni” (PLOS Neglected Tropical Diseases, 2023).
Entries after “also recorded” stand apart in the source; their conditions may differ.

Key:
[1] = system: Cornu aspersum FaNaC; design: method as in PMID 7501021; details: cited from earlier work
[2] = system: Planorbella FaNaC; design: method as in PMID 10878095; details: cited from earlier work
[3] = system: Biomphalaria glabrata FMRF-NH2 gated sodium channel (Bgl-FaNaC); experiment: Two-electrode voltage clamp of Bgl-FaNaC heterologously expressed in Xenopus oocytes; assay type: cell-based; details: peptide 1 mM (given for FLRF-NH2, pQFYRI-NH2, FIRF-NH2; not given for GDPFLRF-NH2); oocyte voltage clamp -60 mV
Experimental: The cDNA encoding the Bgl-FaNaC sequence was codon-optimized for Xenopus laevis and synthesized by Integrated DNA Technologies (IDT, Coralville IA). The Flag-tag protein affinity sequence (DYKDDDDK; Sigma-Aldrich) was added to the N-terminal to enable confirmation of expression. The cDNA was subcloned into the Xenopus expression vector pGEM HE as described previously. The Bgl-FaNaC full-length RNA was transcribed in vitro, capped and polyadenylated using the T7 mScript Standard mRNA Production System (CellScript, Madison WI).
Oocytes were obtained from dissected ovaries of adult Xenopus laevis specimens (Xenopus Express, Brooksville FL). They were dispersed with type II collagenase and manually defolliculated. RNA injections were performed in pre-selected oocytes from stages V and VI. Oocytes were injected with 38.6 nL of Bgl-FaNaC encoding RNA at a concentration of 20 ng/uL using a Nanoliter 2000 microinjector (World Precision Instruments, Sarasota FL).
Injected oocytes were placed at the bottom of a plastic recording chamber (3 ml volume) lined with a nylon mesh and continuously perfused with ND96 (96 mM NaCl, 2 mM KCl, 1.8 mM CaCl2, 1 mM MgCl2, 5 mM HEPES, pH 7.6; see detailed methods in [38]). An OC725B oocyte clamp (Warner Instruments LLC., Hamden CT) was used to clamp the membrane potential at -60 mV with independent microelectrodes for recording (0.1 M potassium chloride) and passing current (3 M potassium chloride). Data were acquired on a Digidata 1200 interface with Clampex (V.6) and analyzed with AxoScope 10.7 (Axon Instruments, Union City CA). All experiments were carried out at room temperature (20–25°C).
Synthetic FMRF-NH2, FLRF-NH2, FIRF-NH2, pQFYRI-NH2, and GDPFLRF-NH2 peptides (>90% purity) were purchased from GL Biochem (Shanghai, China). All peptides were dissolved in ND96 in a stock of 1 mM. Peptide stocks were frozen at -20°C and serial dilutions were freshly prepared before each experiment. Peptides were applied manually using a pipettor (1 mL, upstream from the oocyte).

Compound	Current response to related peptide application [3]	further results
N=C(N)NC(=O)c1nc(Cl)c(N)nc1N [amiloride]	–	Effect of amiloride on FaNaC ([1]; FaNaC of Cornu aspersa): blocks; Effect of amiloride on FaNaC responses to FMRF-NH2 [2]: potentiates responses to FMRF-NH2
GDPFLRF-NH2 [Synthetic heptapeptide, product of the heptapeptide precursor Bgl-FaRP2]	No currents; also recorded: No response was elicited	–
pQFYRI-NH2 [Synthetic peptide encoded on the tetrapeptide precursor Bgl-FaRP1]	No currents	–
FLRF-NH2 [Synthetic related peptide encoded on the Biomphalaria FMRF-NH2 precursor]	No currents; also recorded: No response was detected	EC50 ([1]; C. aspersum FaNaC, read-out: EC50 for FaNaC activation): 11 µM; Response of FaNaC to peptide [2]: negligible
FIRF-NH2 [Synthetic peptide encoded on the tetrapeptide precursor Bgl-FaRP1]	No currents	–
